In patent US3984393A, “Aminoglycoside antibiotics” (The Upjohn Company, priority 1975, dated 1976):
Converted amounts (≈) assume the structure as drawn. Read-outs that look alike come from different tables or passages of the source.

What was measured:
B. cereus = test: standard disc plate assay, 12.5 mm paper discs (zone of inhibition), B. cereus; format: cell-based, Bacillus cereus; conditions: for zone of inhibition at 5000 µg/mL / zone of inhibition at 10000 µg/mL: Bacillus cereus, B. cereus; for zone of inhibition at 5000 µg/mL: 5 mg/ml; for zone of inhibition at 10000 µg/mL: 10 mg/ml; for active against Bacillus cereus: conclusion in words from the above results
From the text: (§1) The novel intermediates, disclosed herein, are useful to make novel aminoglycoside antibiotics. These novel aminoglycoside antibiotics are antibacterially active, and, thus, they can be used in various environments to eradicate or control sensitive bacteria. Following are in vitro antibacterial test results for representative compounds of the subject invention. The results were obtained with a standard disc plate assay using 12.5 mm paper discs.

B. subtilis = test: standard disc plate assay, 12.5 mm paper discs (zone of inhibition), B. subtilis; format: cell-based, Bacillus subtilis; conditions: for zone of inhibition at 5000 µg/mL / zone of inhibition at 10000 µg/mL: Bacillus subtilis, B. subtilis; for zone of inhibition at 5000 µg/mL: 5 mg/ml; for zone of inhibition at 10000 µg/mL: 10 mg/ml; for active against Bacillus subtilis: conclusion in words from the above results
From the text: as §1

S. aureus UC 76 = test: standard microplate test in BHI Agar (MIC), S. aureus UC 76; format: cell-based, Staphylococcus aureus; conditions: for MIC: Staphylococcus aureus, UC76, 20 h, read-out: Minimum Inhibitory Concentration
Experimental: (§2) Compounds were also tested in a standard microplate test in Brain Heart Infusion (BHI) Agar, at a concentration of 1 mg/ml. Incubation is at 37° and end points are read at 20 hours. Brain Heart Infusion Agar (supplied by Difco Laboratories, Detroit, Michigan, U.S.A.) has the following composition:
(§3) Compounds (7β), (7α) and (9) were tested again along with compounds (11) and (14β) against a neamine control using the same conditions as given above.

S. aureus UC 570 = test: standard microplate test in BHI Agar (MIC), S. aureus UC 570; format: cell-based; conditions: Staphylococcus aureus, first table, read-out: Minimum Inhibitory Concentration
Experimental: (§4) Compounds were also tested in a standard microplate test in Brain Heart Infusion (BHI) Agar, at a concentration of 1 mg/ml. Incubation is at 37° and end points are read at 20 hours. Brain Heart Infusion Agar (supplied by Difco Laboratories, Detroit, Michigan, U.S.A.) has the following composition: […]

S. aureus UC 746 = test: standard microplate test in BHI Agar (MIC), S. aureus UC 746; format: cell-based; conditions: Staphylococcus aureus, UC746, 37°, 20 h, first table, read-out: Minimum Inhibitory Concentration
Experimental: as §4

S. hemolyticus UC 152 = test: standard microplate test in BHI Agar (MIC), S. hemolyticus UC 152; format: cell-based, Streptococcus hemolyticus; conditions: for MIC: Streptococcus pyogenes
Experimental: as §2, §3

St. faecalis UC 694 = test: standard microplate test in BHI Agar (MIC), St. faecalis UC 694; format: cell-based; conditions: Enterococcus faecalis, UC694, 20 h, read-out: Minimum Inhibitory Concentration
Experimental: as §2, §3

E. coli UC 45 = test: standard microplate test in BHI Agar (MIC), E. coli UC 45; format: cell-based; conditions: Escherichia coli, UC45, 20 h, E. coli UC 45, read-out: Minimum Inhibitory Concentration
Experimental: as §2, §3

P. vulgaris UC 93 = test: standard microplate test in BHI Agar (MIC), P. vulgaris UC 93; format: cell-based; conditions: Proteus vulgaris, UC93, 20 h, P. vulgaris UC 93, read-out: Minimum Inhibitory Concentration
Experimental: as §2, §3

K. pneumoniae UC 58 = test: standard microplate test in BHI Agar (MIC), K. pneumoniae UC 58; format: cell-based; conditions: Klebsiella pneumoniae, UC58, 20 h
Experimental: as §2, §3

S. schottmuelleri UC 126 = test: standard microplate test in BHI Agar (MIC), S. schottmuelleri UC 126; format: cell-based; conditions: 20 h, read-out: Minimum Inhibitory Concentration
Experimental: as §2, §3

Ps. aeruginosa UC 95 = test: standard microplate test in BHI Agar (MIC), Ps. aeruginosa UC 95; format: cell-based; conditions: Pseudomonas aeruginosa, UC95, 20 h, Ps. aeruginosa UC 95, read-out: Minimum Inhibitory Concentration
Experimental: as §2, §3

D. pneumoniae UC 41 = test: standard microplate test in BHI Agar (MIC), D. pneumoniae UC 41; format: cell-based; conditions: Streptococcus pneumoniae, UC41, 20 h, D. pneumoniae UC 41, read-out: Minimum Inhibitory Concentration
Experimental: as §2, §3

P. mirabilis A-63 = test: standard microplate test in BHI Agar (MIC), P. mirabilis A-63; format: cell-based; conditions: Proteus mirabilis, A63, 20 h, P. mirabilis A-63, retest table, neamine control, read-out: Minimum Inhibitory Concentration
Experimental: as §2, §3

P. morgani UC 3186 = test: standard microplate test in BHI Agar (MIC), P. morgani UC 3186; format: cell-based; conditions: 20 h, P. morgani UC 3186, retest table, neamine control, read-out: Minimum Inhibitory Concentration
Experimental: as §2, §3

P. rettgeri UC 339 = test: standard microplate test in BHI Agar (MIC), P. rettgeri UC 339; format: cell-based; conditions: Providencia rettgeri, UC339, 20 h, P. rettgeri UC 339, retest table, neamine control, read-out: Minimum Inhibitory Concentration
Experimental: as §2, §3

S. marcescens UC 131 = test: standard microplate test in BHI Agar (MIC), S. marcescens UC 131; format: cell-based; conditions: Serratia marcescens, UC131, 20 h, S. marcescens UC 131, retest table, neamine control, read-out: Minimum Inhibitory Concentration
Experimental: as §2, §3

S. flexneri UC 143 = test: standard microplate test in BHI Agar (MIC), S. flexneri UC 143; format: cell-based; conditions: Shigella flexneri, UC143, 20 h, retest table, neamine control, read-out: Minimum Inhibitory Concentration
Experimental: as §2, §3

S. typhi TG-3 = test: standard microplate test in BHI Agar (MIC), S. typhi TG-3; format: cell-based; conditions: Salmonella enterica, 20 h, read-out: Minimum Inhibitory Concentration
Experimental: as §2, §3

[1] = BHI agar, 37°, 20 h, first table, *run on different day
[2] = retest table, group (7β), (14β), neamine control
[3] = BHI agar, 37°, 20 h, first table
[4] = retest table, group (9), (11), (7α), neamine control

NC[C@H]1O[C@H](O[C@H]2[C@H](O)[C@@H](O[C@@H]3O[C@H](CO)[C@@H](O)[C@H]3O)[C@H](N)C[C@@H]2N)[C@H](N)[C@@H](O)[C@@H]1O [(7β), 6-O-(β-D-Ribofuranosyl)neamine]
zone of inhibition at 5000 µg/mL (B. cereus): 25 mm | zone of inhibition at 10000 µg/mL (B. cereus): 34 mm | active against Bacillus cereus (B. cereus): active | zone of inhibition at 5000 µg/mL (B. subtilis): 35 mm | zone of inhibition at 10000 µg/mL (B. subtilis): 38 mm | active against Bacillus subtilis (B. subtilis): active | MIC (S. aureus UC 76; S. aureus 284 UC 76, BHI agar, 37°, 20 h, first table, *run on different day): 1000 µg/mL (≈ 2200 µM) | MIC (S. aureus UC 76; S. aureus UC 76, retest table, group (7β), (14β), neamine control): 500 µg/mL (≈ 1100 µM) | MIC (S. aureus UC 570; UC570, 37°, 20 h, *run on different day): 1000 µg/mL (≈ 2200 µM) | MIC (S. aureus UC 746; *run on different day): 500 µg/mL (≈ 1100 µM) | MIC (S. hemolyticus UC 152; UC152, 20 h, read-out: Minimum Inhibitory Concentration, S. hemolyticus UC 152, BHI agar, 37°, 20 h, first table, *run on different day): 62.5 µg/mL (≈ 138 µM) | MIC (S. hemolyticus UC 152; UC152, 20 h, S. hemolyticus UC 152, retest table, group (7β), (14β), neamine control, read-out: Minimum Inhibitory Concentration): 250 µg/mL (≈ 550 µM) | MIC (St. faecalis UC 694; S. faecalis UC 694, retest table, group (7β), (14β), neamine control): 1000 µg/mL (≈ 2200 µM) | MIC (St. faecalis UC 694; St. faecalis UC 694, BHI agar, 37°, 20 h, first table, *run on different day): > 1000 µg/mL | MIC (E. coli UC 45; [1]): 500 µg/mL (≈ 1100 µM) | MIC (E. coli UC 45; [2]): 1000 µg/mL (≈ 2200 µM) | MIC (P. vulgaris UC 93; [1]): 500 µg/mL (≈ 1100 µM) | MIC (P. vulgaris UC 93; [2]): 1000 µg/mL (≈ 2200 µM) | MIC (K. pneumoniae UC 58; read-out: Minimum Inhibitory Concentration, K. pneumoniae UC 58, BHI agar, 37°, 20 h, first table, *run on different day): 62.5 µg/mL (≈ 138 µM) | MIC (K. pneumoniae UC 58; K. pneumoniae UC 58, retest table, group (7β), (14β), neamine control, read-out: Minimum Inhibitory Concentration): 250 µg/mL (≈ 550 µM) | MIC (S. schottmuelleri UC 126; BHI agar, 37°, first table, *run on different day): 250 µg/mL (≈ 550 µM) | MIC (S. schottmuelleri UC 126; [2]): 500 µg/mL (≈ 1100 µM) | MIC (Ps. aeruginosa UC 95; [1]): > 1000 µg/mL | MIC (Ps. aeruginosa UC 95; [2]): 1000 µg/mL (≈ 2200 µM) | MIC (D. pneumoniae UC 41; [1]): > 1000 µg/mL | MIC (D. pneumoniae UC 41; [2]): 1000 µg/mL (≈ 2200 µM) | MIC (P. mirabilis A-63; group (7β), (14β)): 1000 µg/mL (≈ 2200 µM) | MIC (P. morgani UC 3186; group (7β), (14β)): 1000 µg/mL (≈ 2200 µM) | MIC (P. rettgeri UC 339; group (7β), (14β)): 1000 µg/mL (≈ 2200 µM) | MIC (S. marcescens UC 131; group (7β), (14β)): 1000 µg/mL (≈ 2200 µM) | MIC (S. flexneri UC 143; group (7β), (14β)): 1000 µg/mL (≈ 2200 µM) | MIC (S. typhi TG-3): 1000 µg/mL (≈ 2200 µM)

CC1(O[C@@H]2[C@@H](O)[C@H](O[C@H]3O[C@H](CN)[C@@H](O)[C@H](O)[C@H]3N)[C@@H](N)C[C@H]2N)O[C@H]2O[C@H](CO)[C@@H](O)[C@H]2O1 (stereo partly shown) [Compound (9)]
zone of inhibition at 5000 µg/mL (B. cereus): 29 mm | zone of inhibition at 10000 µg/mL (B. cereus): 34 mm | active against Bacillus cereus (B. cereus): active | zone of inhibition at 5000 µg/mL (B. subtilis): 32 mm | zone of inhibition at 10000 µg/mL (B. subtilis): 34 mm | active against Bacillus subtilis (B. subtilis): active | MIC (S. aureus UC 76; S. aureus UC 76, retest table, group (9), (11), (7α), neamine control): 125 µg/mL (≈ 252 µM) | active against Staphylococcus aureus (S. aureus UC 76; conclusion in words from the above results): active | MIC (S. aureus UC 570; UC570, 20 h, 37°): 250 µg/mL (≈ 504 µM) | MIC (S. aureus UC 746): 250 µg/mL (≈ 504 µM) | Minimum Inhibitory Concentration (S. hemolyticus UC 152; S. hemolyticus UC 152, retest table, group (9), (11), (7α), neamine control): 3.9 µg/mL | MIC (S. hemolyticus UC 152; UC152, S. hemolyticus UC 152, BHI agar, 37°, 20 h, first table, read-out: Minimum Inhibitory Concentration): 3.9 µg/mL (≈ 7.85 µM) | MIC (St. faecalis UC 694; S. faecalis UC 694, retest table, group (9), (11), (7α), neamine control): 1000 µg/mL (≈ 2010 µM) | MIC (St. faecalis UC 694; St. faecalis UC 694, BHI agar, 37°, 20 h, first table): > 1000 µg/mL | MIC (E. coli UC 45; [3]): 250 µg/mL (≈ 504 µM) | MIC (E. coli UC 45; [4]): 250 µg/mL (≈ 504 µM) | MIC (P. vulgaris UC 93; [3]): 500 µg/mL (≈ 1010 µM) | MIC (P. vulgaris UC 93; [4]): 125 µg/mL (≈ 252 µM) | MIC (K. pneumoniae UC 58; read-out: Minimum Inhibitory Concentration, K. pneumoniae UC 58, BHI agar, 37°, 20 h, first table): 62.5 µg/mL (≈ 126 µM) | MIC (K. pneumoniae UC 58; K. pneumoniae UC 58, retest table, group (9), (11), (7α), neamine control, read-out: Minimum Inhibitory Concentration): 31.2 µg/mL (≈ 62.8 µM) | MIC (S. schottmuelleri UC 126; BHI agar, 37°, first table): 250 µg/mL (≈ 504 µM) | MIC (S. schottmuelleri UC 126; [4]): 62.5 µg/mL (≈ 126 µM) | MIC (Ps. aeruginosa UC 95; [3]): > 1000 µg/mL | MIC (Ps. aeruginosa UC 95; [4]): 1000 µg/mL (≈ 2010 µM) | MIC (D. pneumoniae UC 41; [3]): > 1000 µg/mL | MIC (D. pneumoniae UC 41; [4]): 125 µg/mL (≈ 252 µM) | MIC (P. mirabilis A-63; group (9), (11), (7α)): 500 µg/mL (≈ 1010 µM) | MIC (P. morgani UC 3186; group (9), (11), (7α)): 125 µg/mL (≈ 252 µM) | MIC (P. rettgeri UC 339; group (9), (11), (7α)): 1000 µg/mL (≈ 2010 µM) | MIC (S. marcescens UC 131; group (9), (11), (7α)): 500 µg/mL (≈ 1010 µM) | MIC (S. flexneri UC 143; group (9), (11), (7α)): 500 µg/mL (≈ 1010 µM) | MIC (S. typhi TG-3): 250 µg/mL (≈ 504 µM)
